# Laboratory results reported in ChEMBL document CHEMBL1144347, “Endothelin-converting enzyme-1 inhibition and growth of human glioblastoma cells” (J Med Chem, 2005).
# Key:
# [1] = cells; settings: Homo sapiens, Glioblastoma
# Description: (§1) Inhibitory concentration against DNA synthesis in LNZ308 glioblastoma cells
# [2] = molecular target: T1, Endothelin-converting enzyme 1 (Homo sapiens, UniProt P42892); experiment: Inhibitory concentration against human ECE-1 by RIA
# T1 sequence (P42892 whole entry): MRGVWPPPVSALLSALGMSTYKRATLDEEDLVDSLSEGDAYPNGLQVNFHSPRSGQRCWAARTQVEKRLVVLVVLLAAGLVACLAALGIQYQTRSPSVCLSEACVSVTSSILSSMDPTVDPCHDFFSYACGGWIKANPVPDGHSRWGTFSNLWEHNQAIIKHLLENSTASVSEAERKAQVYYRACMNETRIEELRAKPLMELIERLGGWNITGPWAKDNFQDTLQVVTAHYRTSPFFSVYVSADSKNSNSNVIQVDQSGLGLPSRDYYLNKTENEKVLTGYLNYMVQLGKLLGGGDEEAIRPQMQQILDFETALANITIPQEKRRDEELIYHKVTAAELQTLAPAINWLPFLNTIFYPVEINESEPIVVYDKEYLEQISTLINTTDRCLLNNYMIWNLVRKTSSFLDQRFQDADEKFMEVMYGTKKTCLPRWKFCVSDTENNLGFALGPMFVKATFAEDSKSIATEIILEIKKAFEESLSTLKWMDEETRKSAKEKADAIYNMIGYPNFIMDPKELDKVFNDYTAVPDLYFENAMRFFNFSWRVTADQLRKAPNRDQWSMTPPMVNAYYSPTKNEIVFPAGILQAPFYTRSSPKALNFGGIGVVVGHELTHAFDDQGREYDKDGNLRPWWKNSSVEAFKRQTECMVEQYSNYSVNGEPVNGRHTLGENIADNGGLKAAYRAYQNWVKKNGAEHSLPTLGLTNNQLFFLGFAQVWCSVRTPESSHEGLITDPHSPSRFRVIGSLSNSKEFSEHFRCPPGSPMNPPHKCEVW
# [3] = molecular target: Neprilysin (Homo sapiens, UniProt P08473); experiment: Inhibitory concentration against Neprilysin
# Chain of Neprilysin (P08473 whole entry): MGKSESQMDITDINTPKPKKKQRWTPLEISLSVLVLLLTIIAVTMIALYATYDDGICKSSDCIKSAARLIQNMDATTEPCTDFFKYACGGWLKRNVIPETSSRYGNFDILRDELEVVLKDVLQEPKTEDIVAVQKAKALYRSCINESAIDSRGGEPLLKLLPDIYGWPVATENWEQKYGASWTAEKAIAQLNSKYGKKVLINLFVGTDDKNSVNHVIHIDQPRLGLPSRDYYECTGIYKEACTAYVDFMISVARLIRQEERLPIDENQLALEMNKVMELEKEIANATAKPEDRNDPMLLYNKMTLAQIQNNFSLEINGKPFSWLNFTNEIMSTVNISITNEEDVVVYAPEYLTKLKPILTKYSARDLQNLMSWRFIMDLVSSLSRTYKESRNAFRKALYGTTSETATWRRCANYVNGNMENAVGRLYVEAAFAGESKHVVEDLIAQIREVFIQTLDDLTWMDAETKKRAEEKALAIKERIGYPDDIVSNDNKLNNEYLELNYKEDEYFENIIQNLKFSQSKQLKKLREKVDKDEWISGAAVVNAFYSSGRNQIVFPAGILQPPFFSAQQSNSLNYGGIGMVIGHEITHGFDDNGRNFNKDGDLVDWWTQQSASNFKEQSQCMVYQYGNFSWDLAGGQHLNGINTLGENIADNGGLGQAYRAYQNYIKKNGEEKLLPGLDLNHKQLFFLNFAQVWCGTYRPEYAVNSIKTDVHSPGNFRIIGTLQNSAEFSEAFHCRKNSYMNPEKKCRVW
# [4] = molecular target: Angiotensin-converting enzyme (Homo sapiens, UniProt P12821); experiment: Inhibitory concentration against human angiotensin I converting enzyme
# Chain of Angiotensin-converting enzyme (P12821 whole entry): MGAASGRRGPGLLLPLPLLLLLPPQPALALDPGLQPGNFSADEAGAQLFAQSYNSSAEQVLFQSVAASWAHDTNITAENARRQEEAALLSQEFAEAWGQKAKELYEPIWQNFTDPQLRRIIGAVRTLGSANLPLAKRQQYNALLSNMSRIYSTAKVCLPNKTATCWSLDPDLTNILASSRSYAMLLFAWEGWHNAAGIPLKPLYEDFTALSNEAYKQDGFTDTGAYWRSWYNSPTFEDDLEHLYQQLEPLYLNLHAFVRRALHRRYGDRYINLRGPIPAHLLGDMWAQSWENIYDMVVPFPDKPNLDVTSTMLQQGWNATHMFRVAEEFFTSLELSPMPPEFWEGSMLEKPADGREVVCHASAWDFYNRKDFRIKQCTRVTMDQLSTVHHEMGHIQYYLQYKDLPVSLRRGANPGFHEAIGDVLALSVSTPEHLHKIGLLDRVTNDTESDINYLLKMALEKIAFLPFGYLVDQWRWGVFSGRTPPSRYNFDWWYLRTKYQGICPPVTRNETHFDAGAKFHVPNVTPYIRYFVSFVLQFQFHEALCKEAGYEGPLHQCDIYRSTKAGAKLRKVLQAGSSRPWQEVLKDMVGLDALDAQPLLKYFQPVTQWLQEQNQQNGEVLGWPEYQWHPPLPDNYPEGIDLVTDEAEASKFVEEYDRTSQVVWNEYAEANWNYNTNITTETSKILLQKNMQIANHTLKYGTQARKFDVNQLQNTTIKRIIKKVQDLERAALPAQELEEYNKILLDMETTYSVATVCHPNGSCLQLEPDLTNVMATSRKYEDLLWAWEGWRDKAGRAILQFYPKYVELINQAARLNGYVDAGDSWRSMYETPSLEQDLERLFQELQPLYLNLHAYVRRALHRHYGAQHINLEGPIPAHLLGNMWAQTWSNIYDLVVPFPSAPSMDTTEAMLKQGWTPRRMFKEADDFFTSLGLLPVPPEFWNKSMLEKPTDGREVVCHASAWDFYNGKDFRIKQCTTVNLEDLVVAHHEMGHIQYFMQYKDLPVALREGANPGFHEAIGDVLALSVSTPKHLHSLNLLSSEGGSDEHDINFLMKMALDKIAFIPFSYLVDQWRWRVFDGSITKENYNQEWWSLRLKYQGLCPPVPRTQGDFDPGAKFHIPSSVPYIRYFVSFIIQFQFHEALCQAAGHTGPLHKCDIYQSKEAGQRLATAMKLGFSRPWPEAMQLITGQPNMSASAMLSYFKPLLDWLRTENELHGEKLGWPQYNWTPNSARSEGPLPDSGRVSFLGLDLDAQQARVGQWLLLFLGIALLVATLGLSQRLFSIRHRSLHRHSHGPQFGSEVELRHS
# [5] = cells; settings: Homo sapiens, Glioblastoma; remark: listed apart in the source
# Description: Inhibitory concentration against DNA synthesis in LN18 glioblastoma cells
# [6] = molecular target: T1, Endothelin-converting enzyme 1; experiment: Inhibitory concentration against human ECE-1 expressed in MDCK cells; assay type: cell-based
# [7] = cells; settings: Homo sapiens, Glioblastoma; remark: listed apart in the source
# Description: as §1
# [8] = cells; settings: Homo sapiens, Glioblastoma; remark: listed apart in the source
# Description: Inhibitory concentration againstDNA synthesis in LN18 glioblastoma cells
# [9] = Inhibitory concentration of the compound was determined against DNA synthesis in LN18 glioblastoma cells; assay type: functional, cell-based; settings: Homo sapiens
IC50 [1] [µM],IC50 [2] [µM],IC50 [3] [µM],IC50 [4] [µM],IC50 [5] [µM],IC50 [6] [µM],IC50 [7] [µM],IC50 [8] [µM],IC50 [9] [µM],Structure (SMILES)
,0.0069,> 100,> 100,,0.0765,16,14,,CC(=O)S[C@@H]1C[C@@H](COCc2cc(F)c(F)cc2F)N(C(=O)Oc2cccc3c2OCCO3)C1
50,0.016,> 100,> 100,27,1.09,,,,CC(C)OC(=O)N1C[C@H](S)C[C@H]1CNCc1cc(F)ccc1F
,0.0104,> 100,31.5,,0.0729,40,,19,CCCc1cnc(N2C[C@H](S)C[C@H]2CNCc2cc(F)ccc2F)nc1
,0.0012,> 100,13.4,,0.067,,,,COC(=O)c1ccccc1OC(=O)N1CC(S)CC1COCc1cc(F)c(F)cc1F (centres undefined)

# More lines, now with the values behind:
Structure (SMILES),IC50 [1] [µM],IC50 [2] [µM],IC50 [3] [µM],IC50 [4] [µM],IC50 [5] [µM],IC50 [6] [µM],IC50 [7] [µM],IC50 [8] [µM],IC50 [9] [µM]
COC(=O)c1ccccc1NC(=O)CN(C)C(=O)C1C[C@@H](S)CN1S(=O)(=O)c1ccc2ccccc2c1 (some centres undefined),16,0.0808,81.9,36.6,12,10.9,,,
O=C(S[C@@H]1C[C@@H](COCc2cc(F)c(F)cc2F)N(C(=O)Oc2cccc3c2OCCO3)C1)c1ccccc1,20,0.0497,> 100,> 100,18,0.48,,,
Cc1ccc(S(=O)(=O)NN(C)C(=O)C2C[C@@H](S)CN2S(=O)(=O)c2ccc3ccccc3c2)cc1 (some centres undefined),,0.0613,39.2,14.6,,2.53,,,
O=P(O)(O)C(Cc1ccc2ccccc2c1)N[C@@H](Cc1ccc(-c2ccccc2)cc1)c1nnn[nH]1 (some centres undefined) [CGS-314447],,0.02,,,,,,,
